Consider 20 compounds from patent US8455497B2, “Inhibitors of aspartyl protease” (Vertex Pharmaceuticals Incorporated, priority 1999, dated 2013).

Where two headings read alike, the source gives them in different places.

Assay [1] deals with D545701-14 multi protease inhibitor resistant virus. The assay is described as follows: Anti-viral activity against resistant virus D545701-14 in MT4 cells. Format: cell-based, HIV-1. The procedure:
(§1) Exponentially growing MT4 cells were harvested and centrifuged at 1000 rpm for 10 min in a Jouan centrifuge (model CR 4 12). […] Cell aliquots were infected by the addition of HIV-1 (strain IIIB) diluted to give a viral multiplicity of infection of 100×TCID50. […] Cell infection was allowed to proceed for 1 hr at 37° in a tissue culture incubator with humidified 5% CO2 atmosphere. After the 1 hr incubation the virus/cell suspensions were diluted 6-fold with fresh medium, and 125 μl of the cell suspension was added to each well of the plate containing pre-diluted compound. Plates were then placed in a tissue culture incubator with humidified 5% CO2 for 5 days. At the end of the incubation period, 27 μl of 5% Nonidet-40 was added to each well of the incubation plate. After thorough mixing with a Costar multitip pipetter, 60 μl of the mixture was transferred to filter-bottomed 96-well plates. The plates were analyzed in an automated assay instrument (Screen Machine, Idexx Laboratories). The assay makes use of a propidium iodide dye to estimate the DNA content of each well.
(§2) Anti-Viral Activity Against Resistant Viruses
EP13 and DS45701, two multi protease inhibitor resistant viruses were used to assess potency against mutant viruses. These viruses contain the following mutations relative to the consensus sequence of wild type virus: […]

For the next assay, the system named is HIV-1 (strain IIIB). The assay is described as follows: Antiviral activity assay in MT4 cells (propidium iodide based). Conditions: wild type HIV-1 virus, MT4 cells, read-out: Wildtype virus - IC50. It is filed as cell-based. The method in brief: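 Compound serial dilutions in RPMI/FCS received MT4 cells pre-infected 1 hr at 37°C with HIV-1 IIIB at 100×TCID50. After 5 days' culture and Nonidet-40 lysis, well DNA content was measured by propidium iodide dye; mock-infected cells served as control.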

The test system of assay [2] is EP13 multi protease inhibitor resistant virus. The assay is described as follows: Anti-viral activity against resistant virus EP13 in MT4 cells. Format: cell-based, HIV-1. On the procedure: as §1, §2
EP13 and DS45701, two multi protease inhibitor resistant viruses were used to assess potency against mutant viruses. These viruses contain the following mutations relative to the consensus sequence of wild type virus:
EP13: Protease amino acid sequence: M46I, L63P, A71V, V82F/L, I84V; No reverse transcriptase mutations.

Setting [3] is: Human immunodeficiency virus 1, MT4, read-out: D545701-14 mutant - IC50, D545701-14 multi protease inhibitor resistant virus, MT4 cells.
[4] abbreviates: Human immunodeficiency virus 1, IIIB.
The mark [5] stands for this setting: Human immunodeficiency virus 1, MT4, read-out: EP13 mutant IC50, EP13 multi protease inhibitor resistant virus, MT4 cells.
The mark [6] stands for this setting: D545701-14 multi protease inhibitor resistant virus, MT4 cells, read-out: D545701-14 mutant - IC50.
Setting [7] is: Human immunodeficiency virus 1, MT4, read-out: Reference data for protease inhibitors (D545701-14), D545701-14 mutant virus.
[8] abbreviates: Human immunodeficiency virus 1, MT4, read-out: Reference data for protease inhibitors (EP13), EP13 mutant virus.

Consider `COCCNCCCOc1ccc(C[C@H](NC(=O)O[C@H]2CO[C@H]3OCC[C@H]32)[C@H](O)CN(CC(C)C)S(=O)(=O)c2ccc3c(c2)OCO3)cc1` [Compound 283, (3R,3aS,6aR)-hexahydrofuro[2,3-b]furan-3-yl (1S,2R)-3-[(1,3-benzodioxol-5-ylsulfonyl)(isobutyl)amino]-2-hydroxy-1-(4-{3-[(2-methoxyethyl)amino]propoxy}benzyl) propylcarbamate], for which the values for the IC50 (in assay [1] (setting [3]); in the assay on HIV-1 (strain IIIB) (setting [4]); in assay [2] (setting [5])) were 10 to 100 nM, 10 to 100 nM and 1 to 10 nM, respectively.

For `COC(=O)NCCOc1ccc(C[C@H](NC(=O)O[C@H]2CO[C@H]3OCC[C@H]32)[C@H](O)CN(CC(C)C)S(=O)(=O)c2ccc3c(c2)OCO3)cc1` [Compound 226, (3R,3aS,6aR)-hexahydrofuro[2,3-b]furan-3-yl (1S,2R)-3-[(1,3-benzodioxol-5-ylsulfonyl)(isobutyl)amino]-2-hydroxy-1-(4-{2-[(methoxycarbonyl)amino]ethoxy}benzyl)propylcarbamate], the IC50 was 1 to 10 nM in assay [1] (Human immunodeficiency virus 1, MT4, read-out: D545701-14 mutant - IC50); less than 1 nM with HIV-1 (strain IIIB) (setting [4]); less than 1 nM in assay [2] (Human immunodeficiency virus 1, MT4, read-out: EP13 mutant IC50).

With `CCOC(=O)COc1ccc(C[C@H](NC(=O)O[C@H]2CO[C@H]3OCC[C@H]32)[C@H](O)CN(CC(C)C)S(=O)(=O)c2ccc3c(c2)OCO3)cc1` [Compound 326, Ethyl (4-{(2S,3R)-2-({[(3R,3aS,6aR)-hexahydrofuro[2,3-b]furan-3-yloxy]carbonyl}amino)-4-[(1,3-benzodioxol-5-ylsulfonyl)(isobutyl)amino]-3-hydroxybutyl}phenoxy) acetate], the IC50 was 10 to 100 nM in assay [1] (setting [3]), 1 to 10 nM in the assay on HIV-1 (strain IIIB) (setting [4]) and 10 to 100 nM in assay [2] (setting [5]).

Consider `CC(C)CN(C[C@@H](O)[C@H](Cc1ccc(Oc2c(C(=O)O)cc([N+](=O)[O-])cc2[N+](=O)[O-])cc1)NC(=O)O[C@H]1CO[C@H]2OCC[C@H]21)S(=O)(=O)c1ccc2c(c1)OCO2` [Compound 334, 2-(4-{(2S,3R)-2-({[(3R,3aS,6aR)-hexahydrofuro[2,3-b]furan-3-yloxy]carbonyl}amino)-4-[(1,3-benzodioxol-5-ylsulfonyl)(isobutyl)amino]-3-hydroxybutyl}phenoxy)-3,5-dinitrobenzoic Acid], for which the IC50 (in assay [1] (setting [3]); in the assay with HIV-1 (strain IIIB) (setting [4]); in assay [2] (setting [5])) was 1 to 10 nM each time.

Consider `CC(C)CN(C[C@@H](O)[C@H](Cc1ccc(Oc2ccc([N+](=O)[O-])cn2)cc1)NC(=O)O[C@H]1CO[C@H]2OCC[C@H]21)S(=O)(=O)c1ccc2c(c1)OCO2` [Compound 333, (3R,3aS,6aR)-hexahydrofuro[2,3-b]furan-3-yl (1S,2R)-3-[(1,3-benzodioxol-5-ylsulfonyl)(isobutyl)amino]-2-hydroxy-1-{4-[(5-nitro-2-pyridinyl)oxy]benzyl}propylcarbamate], for which the IC50 (in assay [1] (setting [3]); with HIV-1 (strain IIIB) (setting [4]); in assay [2] (setting [5])) was 1 to 10 nM throughout.

Turning to `CC(C)CN(C[C@@H](O)[C@H](Cc1ccc(OCCCNC(=O)c2ccccc2)cc1)NC(=O)O[C@H]1CO[C@H]2OCC[C@H]21)S(=O)(=O)c1ccc2c(c1)OCO2` [Compound 233], the IC50 in assay [1] (setting [6]) lay in the range of 10 to 100 nM; with HIV-1 (strain IIIB), 1 to 10 nM.

For the compound `CC(C)CN(C[C@@H](O)[C@H](Cc1ccccc1)NC(=O)O[C@H]1CCOC1)S(=O)(=O)c1ccc(N)cc1` [Amprenavir, reference compound], the IC50 in assay [1] (setting [7]) is more than 1000 nM; in assay [2] (setting [8]), 600 nM.

Consider `CC(C)c1nc(CN(C)C(=O)N[C@H](C(=O)N[C@@H](Cc2ccccc2)C[C@H](O)[C@H](Cc2ccccc2)NC(=O)OCc2cncs2)C(C)C)cs1` [Ritonavir, reference compound], for which the IC50 is more than 10000 nM in assay [1] (setting [7]) and more than 600 nM in assay [2] (setting [8]).

As to `CC(C)CN(C[C@@H](O)[C@H](Cc1ccc(OCc2ccoc2)cc1)NC(=O)O[C@H]1CO[C@H]2OCC[C@H]21)S(=O)(=O)c1ccc2c(c1)OCO2` [Compound 210], the IC50 in assay [1] (setting [6]) lay within 10 to 100 nM; in the assay on HIV-1 (strain IIIB), 1 to 10 nM.

As to `CC(C)(C)NC(=O)[C@@H]1C[C@@H]2CCCC[C@@H]2CN1C[C@@H](O)[C@H](Cc1ccccc1)NC(=O)[C@H](CC(N)=O)NC(=O)c1ccc2ccccc2n1` [Saguinavir, reference compound], the IC50 in assay [1] (D545701-14 mutant virus, read-out: Reference data for protease inhibitors (D545701-14)) came to 900 nM.

`Cc1c(O)cccc1C(=O)N[C@@H](CSc1ccccc1)[C@H](O)CN1C[C@H]2CCCC[C@H]2C[C@H]1C(=O)NC(C)(C)C` [Nelfinavir, reference compound]: in assay [1] (setting [7]), the IC50 was found to be 690 nM.

`CC(C)CN(C[C@@H](O)[C@H](Cc1ccc(OCc2noc(-c3ccccc3)n2)cc1)NC(=O)O[C@H]1CO[C@H]2OCC[C@H]21)S(=O)(=O)c1ccc2c(c1)OCO2` [Compound 375]: the IC50 in assay [1] (setting [6]) was in the range of 10 to 100 nM; in the assay on HIV-1 (strain IIIB), 1 to 10 nM.

In the case of `CC(C)CN(C[C@@H](O)[C@H](Cc1ccc(OS(=O)(=O)c2ccc([N+](=O)[O-])cc2)cc1)NC(=O)O[C@@H]1CO[C@H]2OCC[C@H]21)S(=O)(=O)c1ccc([N+](=O)[O-])cc1` [Compound 297, 4-((2S,3R)-2-({[(3S,3aS,6aR)-hexahydrofuro[2,3-b]furan-3-yloxy]carbonyl}amino)-3-hydroxy-4-{isobutyl[(4-nitrophenyl)sulfonyl]amino}butyl)phenyl 4-nitrobenzenesulfonate], the IC50 (in the assay with HIV-1 (strain IIIB) (setting [4]); in assay [2] (setting [5])) was 10 to 100 nM in each case.

Take `CC(C)CN(C[C@@H](O)[C@H](Cc1ccc(OCCc2ccccn2)cc1)NC(=O)O[C@H]1CO[C@H]2OCC[C@H]21)S(=O)(=O)c1ccc2c(c1)OCO2` [Compound 212]: the IC50 in assay [1] (setting [6]) was in the range of 10 to 100 nM; with HIV-1 (strain IIIB) it was 1 to 10 nM.

For `CC(C)CN(C[C@@H](O)[C@H](Cc1ccc(OCc2ccc(C(F)(F)F)cc2)cc1)NC(=O)O[C@H]1CO[C@H]2OCC[C@H]21)S(=O)(=O)c1ccc2c(c1)OCO2` [Compound 372], the IC50 in assay [1] (setting [6]) lay in the range of 10 to 100 nM; in the assay with HIV-1 (strain IIIB), 1 to 10 nM.

As for `COc1ccccc1-c1nc(COc2ccc(C[C@H](NC(=O)O[C@H]3CO[C@H]4OCC[C@H]43)[C@H](O)CN(CC(C)C)S(=O)(=O)c3ccc4c(c3)OCO4)cc2)no1` [Compound 390, (3R,3aS,6aR)-hexahydrofuro[2,3-b]furan-3-yl (1S,2R)-3-[(1,3-benzodioxol-5-ylsulfonyl)(isobutyl)amino]-2-hydroxy-1-(4-{[5-(2-methoxyphenyl)-1,2,4-oxadiazol-3-yl]methoxy}benzyl) propylcarbamate], the values for the IC50 (in assay [1] (setting [6]); in the assay on HIV-1 (strain IIIB)) were 10 to 100 nM and 1 to 10 nM, respectively.

On to `CC(C)CN(C[C@@H](O)[C@H](Cc1ccc(OCc2cccc(C(F)(F)F)c2)cc1)NC(=O)O[C@H]1CO[C@H]2OCC[C@H]21)S(=O)(=O)c1ccc2c(c1)OCO2` [Compound 373], for which the results for the IC50 (in assay [1] (setting [6]); in the assay with HIV-1 (strain IIIB)) were 10 to 100 nM and 1 to 10 nM, respectively.

For the compound `CC(C)CN(C[C@@H](O)[C@H](Cc1ccc(OCCCc2ccccc2)cc1)NC(=O)O[C@H]1CO[C@H]2OCC[C@H]21)S(=O)(=O)c1ccc2c(c1)OCO2` [Compound 353, (3R,3aS,6aR)hexahydrofuro[2,3-b]furan-3-yl (1S,2R)-3-[(1,3-benzodioxol-5-ylsulfonyl)(isobutyl)amino]-2-hydroxy-1-[4-([3-phenylpropyl]oxy)benzyl]propylcarbamate], the IC50 is 1 to 10 nM in assay [1] (read-out: D545701-14 mutant - IC50, D545701-14 multi protease inhibitor resistant virus, MT4 cells) and less than 1 nM in assay [2] (read-out: EP13 mutant IC50, EP13 multi protease inhibitor resistant virus, MT4 cells).

Turning to `CC(C)CN(C[C@@H](O)[C@H](Cc1ccc(OCc2ccc(F)cc2)cc1)NC(=O)O[C@H]1CO[C@H]2OCC[C@H]21)S(=O)(=O)c1ccc2c(c1)OCO2` [Compound 371], the IC50 in the assay on HIV-1 (strain IIIB) is 10 to 100 nM; in assay [2] (EP13 multi protease inhibitor resistant virus, MT4 cells, read-out: EP13 mutant IC50), 1 to 10 nM.

As to `CC(C)(C)NC(=O)[C@@H]1CN(Cc2cccnc2)CCN1C[C@@H](O)C[C@@H](Cc1ccccc1)C(=O)N[C@H]1c2ccccc2C[C@H]1O` [Indinavir, reference compound], the IC50 in assay [1] (setting [7]) came to 700 nM; in assay [2] (setting [8]), 560 nM.
